What was measured:
Assay type in all cases: in vivo
[1] = system: Setaria viridis; assay: Herbicidal pre-emergence action (Part 2), 1280 g/ha; conditions: application rate 1280 g/ha, scored visually after about 3 weeks, Table D4
Outline: (§1)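 Pre-emergence test: monocot and dicot weed seeds were sown in sandy loam, and the soil surface was sprayed with WP or EC formulations at 1280 g/ha (600 L/ha water, 0.5% additive). After about 3 weeks in the greenhouse, damage was visually scored as percent versus untreated controls (100% = dead).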

[2] = system: Echinochloa crus-galli; assay: as above; conditions: application rate 1280 g/ha, scored visually after about 3 weeks, Table D1
Outline: as §1

[3] = system: Matricaria inodora; assay: as above; conditions: application rate 1280 g/ha, scored visually after about 3 weeks, Table D7
Outline: as §1

[4] = system: Stellaria media; assay: as above; conditions: application rate 1280 g/ha, scored visually after about 3 weeks, Table D8
Outline: as §1

[5] = system: Abutilon theophrasti; assay: as above; conditions: application rate 1280 g/ha, scored visually after about 3 weeks, Table D5
Outline: as §1

[6] = system: Amaranthus retroflexus; assay: as above; conditions: application rate 1280 g/ha, scored visually after about 3 weeks, Table D6
Outline: as §1

[7] = system: Lolium rigidum; assay: as above; conditions: application rate 1280 g/ha, scored visually after about 3 weeks, Table D2
Outline: as §1

[8] = system: Poa annua; assay: as above; conditions: application rate 1280 g/ha, scored visually after about 3 weeks, Table D3
Outline: as §1

[9] = system: Setaria viridis; assay: Herbicidal post-emergence action (Part 2), 1280 g/ha; conditions: application rate 1280 g/ha, rated visually after about 3 weeks, Table C3
Outline: (§2)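 Greenhouse-grown weeds in sandy loam treated post-emergence at the one-leaf stage (2-3 weeks after sowing) with WP or EC formulations plus 0.5% additive at 600 L/ha water. Visual activity rated about 3 weeks later versus untreated controls, 0% (like control) to 100% (dead).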

[10] = system: Echinochloa crus-galli; assay: as above; conditions: post-emergence (Part 2), application rate 1280 g/ha, rated visually after about 3 weeks vs untreated controls
Outline: as §2

[11] = system: Matricaria inodora; assay: as above; conditions: application rate 1280 g/ha, rated visually after about 3 weeks, Table C6
Outline: as §2

[12] = system: Stellaria media; assay: as above; conditions: application rate 1280 g/ha, rated visually after about 3 weeks, Table C7
Outline: as §2

[13] = system: Abutilon theophrasti; assay: as above; conditions: application rate 1280 g/ha, rated visually after about 3 weeks, Table C4
Outline: as §2

[14] = system: Amaranthus retroflexus; assay: as above; conditions: application rate 1280 g/ha, rated visually after about 3 weeks, Table C5
Outline: as §2

[15] = system: Poa annua; assay: as above; conditions: application rate 1280 g/ha, rated visually after about 3 weeks, Table C2
Outline: as §2

[16] = system: Setaria viridis; assay: Post-emergence herbicidal action, greenhouse, 320 g/ha; conditions: application rate 320 g/ha, rated visually after about 3 weeks vs untreated controls
Outline: (§3)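 Plants treated post-emergence at the one-leaf stage, 2 to 3 weeks after sowing in sandy loam, with WP or EC formulations plus 0.5% additive at 320 g/ha. Visual rating about 3 weeks later versus untreated controls (100% = dead, 0% = like control).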

[17] = system: Alopecurus myosuroides; assay: as above; conditions: application rate 320 g/ha, rated visually after about 3 weeks vs untreated controls
Outline: as §3

[18] = system: Matricaria inodora; assay: as above; conditions: application rate 320 g/ha, rated visually after about 3 weeks vs untreated controls
Outline: as §3

[19] = system: Stellaria media; assay: as above; conditions: application rate 320 g/ha, rated visually after about 3 weeks vs untreated controls
Outline: as §3

[20] = system: Veronica persica; assay: as above; conditions: application rate 320 g/ha, rated visually after about 3 weeks vs untreated controls
Outline: as §3

[21] = system: Polygonum convolvulus; assay: as above; conditions: application rate 320 g/ha, rated visually after about 3 weeks vs untreated controls
Outline: as §3

[22] = system: Pharbitis purpurea; assay: as above; conditions: application rate 320 g/ha, rated visually after about 3 weeks vs untreated controls
Outline: as §3

[23] = system: Abutilon theophrasti; assay: as above; conditions: application rate 320 g/ha, rated visually after about 3 weeks vs untreated controls
Outline: as §3

[24] = system: Amaranthus retroflexus; assay: as above; conditions: application rate 320 g/ha, rated visually after about 3 weeks vs untreated controls
Outline: as §3

[25] = system: Digitaria sanguinalis; assay: as above; conditions: application rate 320 g/ha, rated visually after about 3 weeks vs untreated controls
Outline: as §3

[26] = system: Hordeum murinum; assay: as above; conditions: application rate 320 g/ha, rated visually after about 3 weeks vs untreated controls
Outline: as §3

[27] = system: Viola tricolor; assay: as above; conditions: application rate 320 g/ha, rated visually after about 3 weeks vs untreated controls
Outline: as §3

[28] = system: Setaria viridis; assay: Pre-emergence herbicidal action, greenhouse, 320 g/ha; conditions: application rate 320 g/ha, Table B11
Outline: (§4)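 Sow seeds in soil-filled pots, cover. Spray compound (WP/EC, aqueous, +0.5% additive) on covering soil. Hold under good growth conditions ~3 wk. Score % effect visually vs untreated.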

[29] = system: Echinochloa crus-galli; assay: as above; conditions: application rate 320 g/ha, scored visually after about 3 weeks vs untreated controls
Outline: as §4

[30] = system: Alopecurus myosuroides; assay: as above; conditions: application rate 320 g/ha, scored visually after about 3 weeks vs untreated controls
Outline: as §4

[31] = system: Matricaria inodora; assay: as above; conditions: application rate 320 g/ha, scored visually after about 3 weeks vs untreated controls
Outline: as §4

[32] = system: Stellaria media; assay: as above; conditions: application rate 320 g/ha, scored visually after about 3 weeks vs untreated controls
Outline: as §4

[33] = system: Veronica persica; assay: as above; conditions: application rate 320 g/ha, Table B13
Outline: as §4

[34] = system: Polygonum convolvulus; assay: as above; conditions: application rate 320 g/ha, scored visually after about 3 weeks vs untreated controls
Outline: as §4

[35] = system: Pharbitis purpurea; assay: as above; conditions: application rate 320 g/ha, Table B12
Outline: as §4

[36] = system: Abutilon theophrasti; assay: as above; conditions: application rate 320 g/ha, scored visually after about 3 weeks vs untreated controls
Outline: as §4

[37] = system: Amaranthus retroflexus; assay: as above; conditions: application rate 320 g/ha, scored visually after about 3 weeks vs untreated controls
Outline: as §4

[38] = system: Hordeum murinum; assay: as above; conditions: application rate 320 g/ha, Table B14
Outline: as §4

[39] = system: Avena fatua; assay: as above; conditions: application rate 320 g/ha, scored visually after about 3 weeks vs untreated controls
Outline: as §4

[40] = system: Viola tricolor; assay: as above; conditions: application rate 320 g/ha, Table B8
Outline: as §4

CC(C)C(=O)OC1CCN(C)C(=O)N1c1cc(C(C)(C)C)on1 (stereo not shown) [I.5-162]
Setaria viridis [1]: 100%
Echinochloa crus-galli [2]: 100%
Matricaria inodora [3]: 100%
Stellaria media [4]: 100%
Abutilon theophrasti [5]: 100%
Amaranthus retroflexus [6]: 100%
Lolium rigidum [7]: 90%
Poa Annua [8]: 100%
Setaria viridis [9]: 100%
Echinochloa crus-galli [10]: 100%
Matricaria inodora [11]: 100%
Stellaria media [12]: 100%
Abutilon theophrasti [13]: 100%
Amaranthus retroflexus [14]: 100%
Poa Annua [15]: 100%

CC(C)CC(=O)OC1CCN(C)C(=O)N1c1cc(C(C)(C)C)on1 (stereo not shown) [I.7-162, 3-(5-tert-Butyl-1,2-oxazol-3-yl)-1-methyl-2-oxohexahydropyrimidin-4-yl 3-methylbutanoate]
Setaria viridis (efficacy in %) [16]: 100%
Alopecurus myosuroides (efficacy in %) [17]: 90%
Matricaria inodora (efficacy in %) [18]: 100%
Stellaria media (efficacy in %) [19]: 100%
Veronica persica (efficacy in %) [20]: 90%
Polygonum convolvulus (efficacy in %) [21]: 90%
Pharbitis purpurea (efficacy in %) [22]: 100%
Abutilon theophrasti (efficacy in %) [23]: 100%
Amaranthus retroflexus (efficacy in %) [24]: 100%
Digitaria sanguinalis (efficacy in %) [25]: 80%
Hordeum murinum (efficacy in %) [26]: 80%
Viola tricolor (efficacy in %) [27]: 100%
Setaria viridis (efficacy in %) [28]: 100%
Echinochloa crus-galli (efficacy in %) [29]: 80%
Alopecurus myosuroides (efficacy in %) [30]: 90%
Matricaria inodora (efficacy in %) [31]: 100%
Stellaria media (efficacy in %) [32]: 100%
Veronica persica (efficacy in %) [33]: 80%
Polygonum convolvulus (efficacy in %) [34]: 90%
Pharbitis purpurea (efficacy in %) [35]: 100%
Abutilon theophrasti (efficacy in %) [36]: 100%
Amaranthus retroflexus (efficacy in %) [37]: 100%
Hordeum murinum (efficacy in %) [38]: 90%
Avena fatua (efficacy in %) [39]: 100%
Viola tricolor (efficacy in %) [40]: 100%

From patent US20200390100A1, “SUBSTITUTED N-HETEROCYCLYL- AND N-HETEROARYL-TETRAHYDROPYRIMIDINONES AND THE SALTS THEREOF, AND THE USE OF SAME AS HERBICIDAL ACTIVE SUBSTANCES” (Bayer Aktiengesellschaft, priority 2017, published 2020)
